According to publication PMC10487316, “A high‐throughput microfluidic mechanoporation platform to enable intracellular delivery of cyclic peptides in cell‐based assays” (Bioengineering & Translational Medicine, 2023):
Where a SMILES comes first, the peptide text is derived from it. Bridges are numbered along the chain shown (N, C = ends). [ ]: non-standard residue; d: D form. dPhe(4-CF3) = N[C@H](Cc1ccc(C(F)(F)F)cc1)C(=O)O; dTrp(6-F) = N[C@H](Cc1c[nH]c2cc(F)ccc12)C(=O)O; R5 = C=CCCC[C@@](C)(N)C(=O)O; S5 = C=CCCC[C@](C)(N)C(=O)O

Experiments:
MDM2 (1–125) protein = molecular target: T1, MDM2 (1–125) protein (Homo sapiens, UniProt Q00987); assay: MDM2 binding assay (fluorescence anisotropy competition); conditions: competition vs 50 nM FAM-labeled 12/1 peptide, 250 nM MDM2; heat map of Figure 5a
T1 construct: made in house
Procedure: MDM2 protein generation and binding studies were performed as described.[17] […] The competing molecules were then titrated against the complex of the FAM‐labeled peptide and protein. Curve‐fitting was carried out using Prism 4.0 (GraphPad) to determine K D values. Readings were carried out with an Envision Multilabel Reader (PerkinElmer). […] All titrations were carried out in triplicate.

[1] = test system: CellSensor p53RE-bla HCT116 cell line (p53 response element reporter); assay: HCT116 p53 β-lactamase reporter gene functional assay; assay type: cell-based, human; conditions: 10 μM peptide; unprocessed vs DμVS-processed cells
Procedure: The CellSensor™ p53RE‐bla HCT116 cell line (K1640, Thermo Scientific) was used for functional characterization of p53 pathway activation by DμVS‐delivered peptides. Assay was performed similarly to how previously described.[17] These cells harbor a stable integration of a β‐lactamase reporter gene under control of the p53 response element. Cells were maintained in McCoy's 5A medium (16600‐082, Invitrogen) with 10% dialyzed FBS (26400‐036, Invitrogen), blasticidin (R210‐01, Invitrogen), and penicillin/streptomycin according to the manufacturer's protocol. Peptides were synthesized as previously described.[16], [17] To set up the assay, peptides were first pre‐plated in assay medium (Opti‐MEM supplemented with 0.1 mM non‐essential amino acids [11140‐050, Invitrogen], 1 mM sodium pyruvate [11360‐070, Invitrogen], and penicillin/streptomycin) without FBS on 384‐well plates (Corning 3764) or 96‐well plates (Corning 3603) using a HP D300E digital dispenser (20 μl 384‐well, 50 μl 96‐well). Maximum DMSO concentration used was 0.3% v/v. Cells were washed, resuspended with 0.05% v/v trypsin, spun down for 5 min at 300× g, and resuspended in PBS. Cells were 70‐μm strained and then brought to a final cell density of 3 × 10^6 cells/ml in PBS. Cell suspension was connected to 15 mL P‐CAP of the DμVS system, and 2 mL were used to prime the system. DμVS process was then initiated at 120 psi and 20 μL (384‐well) or 50 μL (96‐well) were dispensed to microplate in wells that were pre‐defined in the Telios software and pre‐loaded with peptides 2× in assay medium. Unprocessed cells were added to the microplate in parallel. After DμVS processing/mixing with peptide, cells were incubated at 37°C for 4 h. β‐lactamase activity was detected using the ToxBLAzer loading kit (K1095, Invitrogen) according to the manufacturer's protocol. Plates were measured using the PHERAstar FSX microplate reader with a LiveBlazer optic module (1400‐G3M‐FI‐410‐530‐460, BMG Labtech). Maximum p53 activity was defined as the β‐lactamase activity induced by 30 μM MP‐081 (meanpos). Percent activation of individual samples (S) was calculated using the following equation, where meanveh represents the mean of vehicle controls: % activation=S−meanveh/meanpos−meanveh×100
Z‐factors were calculated using the formula: Z^′=1−3σpos+3σveh/meanpos−meanveh
Meanpos and σ pos represent the mean and standard deviation, respectively, of the raw ratiometric values for 30 μM MP‐081 and meanveh and σ veh represent the mean and standard deviation of the vehicle controls. Dose–response data EC50 values were determined using the “[Agonist] versus response—Variable slope (four parameters)” algorithm in GraphPad Prism. Single concentration data for expanded peptide set were analyzed using unpaired T‐tests with false discovery rate (FDR, 1.00%) multiple comparisons correction using the two‐stage step‐up (Benjamini, Krieger, and Yekutieli) method. Data were accumulated from at least five independent experimental runs.

T1 sequence (Q00987 1-125): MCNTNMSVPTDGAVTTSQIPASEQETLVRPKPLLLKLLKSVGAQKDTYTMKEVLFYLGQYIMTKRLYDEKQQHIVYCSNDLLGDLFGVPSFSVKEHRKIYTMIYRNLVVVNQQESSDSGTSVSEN

Compound: CC(C)C[C@H]1NC(=O)[C@@H](CC(C)C)NC(=O)[C@@](C)(NC(=O)[C@@H](CCC(=O)O)NC(=O)[C@@H](Cc2ccc(C(F)(F)F)cc2)NC(=O)[C@@H](CC(N)=O)NC(=O)[C@@H](C)NC(=O)[C@@H](Cc2ccc(O)cc2)NC(=O)[C@@H](Cc2c[nH]c3cc(F)ccc23)NC(=O)[C@@H](C)NC(=O)[C@H](N)[C@H](C)O)CCCC=CCCC[C@](C)(C(N)=O)NC1=O [MP-313, H-DThr-DAla-DTrp(6-F)-DTyr-DAla-DAsn-DPhe(4-CF3)-DGlu-S5*-DLeu-DLeu-R5*-NH2] (H-[dT][dA][dTrp(6-F)][dY][dA][dN][dPhe(4-CF3)][dE][S5][dL][dL][R5]-NH2; staple 9-12)
- Kd (MDM2 (1–125) protein): 1.7 nM
- p53 activation at 10 μM with and without DμVS [1]: no p53 reporter activity improvement
